Assay: Rheology: max tack force and adhesion of 16% F127 gels with additives
Format: physicochemical
Conditions: 0.2-1% glycerin added to 16% w/v F127, 37° C., vs no additive
Procedure: An Anton Paar cone and plate rheometer (model MCR 302) with PP25 probe were used to measure the max tack force and the adhesion. The probe was placed in contact with the sample, and then moved at a controlled rate vertically away from the sample to measure the normal force. The peak force on the curve is considered the max tack force, while the adhesion is the area under the force curve. Samples (200 μL) were transferred to the rheometer sample holder using a Drummond Wiretrol 200 μL wire plunger pipette. The samples were equilibrated between the probe and sample holder with a 1 mm gap for 60 s at the specified temperature. A total of 100 points were measured at 60 s intervals with ramp linear mode (initial was set as −0.005 mm/s and the final was set as −0.5 mm/s). If not specified, n=3-6 per each sample group were measured and each sample were prepared individually. The final data was exported from the Antron Parr RheoCompass. The max tack force and the adhesion were calculated with GraphPad Prism 9. For the temperature ramp viscosity experiment, the loading gap was set to 0.3 mm. […] The raw data with temperature (° C.) and viscosity (mPa*s) measurements were exported from the Anton Parr RheoCompass software and analyzed/plotted with GraphPad Prism 9. […]

adhesion of the F127 gels: no measurable effect | max tack force of the F127 gels: no measurable effect
SMILES: OCC(O)CO [glycerin]

Reference: patent US20250177291A1, “HYPOTONIC GEL-FORMING FORMULATIONS WITH ENHANCED RHEOLOGICAL PROPERTIES” (The Johns Hopkins University, priority 2021, published 2025)
